# According to ChEMBL document CHEMBL3045151, “Long-term pre-exposure of the pest mite Tyrophagus putrescentiae to sub-lethal residues of bifenthrin on rapeseed did not affect its susceptibility to bifenthrin” (2011):
# Calls of active or inactive are those of the source. The rule behind the calls is not given here.
# Assays:
# Tyrophagus putrescentiae [1] = experiment: Insecticidal activity against Tyrophagus putrescentiae in compound treated rapeseed assessed as mortality (LD50) after 147 days (reference value: 0.78 ug/cm'2); type: functional
# Tyrophagus putrescentiae [2] = experiment: Insecticidal activity against Tyrophagus putrescentiae in compound treated rapeseed assessed as mortality (LD95) after 105 days (reference value: 2.4 ug/cm'2); type: functional
# Tyrophagus putrescentiae [3] = experiment: Insecticidal activity against Tyrophagus putrescentiae in compound treated rapeseed assessed as decrease in population measured after 21 days; type: functional
# Tyrophagus putrescentiae [4] = experiment: Insecticidal activity against Tyrophagus putrescentiae in compound treated rapeseed assessed as mortality (LD95) after 42 days (reference value: 2.4 ug/cm'2); type: functional
# Tyrophagus putrescentiae [5] = experiment: Insecticidal activity against Tyrophagus putrescentiae in compound treated rapeseed assessed as mortality (LD95) after 84 days (reference value: 2.4 ug/cm'2); type: functional
# Tyrophagus putrescentiae [6] = experiment: Insecticidal activity against Tyrophagus putrescentiae in compound treated rapeseed assessed as mortality (LD50) after 126 days (reference value: 0.78 ug/cm'2); type: functional
# Tyrophagus putrescentiae [7] = experiment: Insecticidal activity against Tyrophagus putrescentiae from control origin in compound treated rapeseed assessed as respiration ppm of co2 at sub-lethal concentration at 25 degC, 85% RH measured after 147 days; type: functional
# Tyrophagus putrescentiae [8] = experiment: Insecticidal activity against Tyrophagus putrescentiae from control origin in compound treated rapeseed assessed as increase in population rate at sub-lethal concentration at 25 degC, 85% RH measured after 147 days; type: functional, organism-based
# Tyrophagus putrescentiae [9] = experiment: Insecticidal activity against Tyrophagus putrescentiae in compound treated rapeseed assessed as mortality (LD50) after 42 days (reference value: 0.78 ug/cm'2); type: functional
# Tyrophagus putrescentiae [10] = experiment: Insecticidal activity against Tyrophagus putrescentiae in compound treated rapeseed assessed as mortality (LD95) after 126 days (reference value: 2.4 ug/cm'2); type: functional
# Tyrophagus putrescentiae [11] = experiment: Insecticidal activity against Tyrophagus putrescentiae from compound treated origin in compound treated rapeseed assessed as respiration ppm of co2 per gram of mite fresh weight per hr at sub-lethal concentration at 25 degC, 85% RH measured after 147 days; type: functional
# Tyrophagus putrescentiae [12] = experiment: Insecticidal activity against Tyrophagus putrescentiae in compound treated rapeseed assessed as mortality (LD50) after 21 days (reference value: 0.78 ug/cm'2); type: functional
# Tyrophagus putrescentiae [13] = experiment: Insecticidal activity against Tyrophagus putrescentiae in compound treated rapeseed assessed as mortality (LD95) after 63 days (reference value: 2.4 ug/cm'2); type: functional
# Tyrophagus putrescentiae [14] = experiment: Insecticidal activity against Tyrophagus putrescentiae in compound treated rapeseed assessed as decrease in population at 0.15 to 150 ug/100 g of rapeseed measured after 21 days; type: functional, organism-based
# Tyrophagus putrescentiae [15] = experiment: Insecticidal activity against Tyrophagus putrescentiae in compound treated rapeseed assessed as mortality after 147 days (reference value: 2.4 ug/cm'2); type: functional
# Tyrophagus putrescentiae [16] = experiment: Insecticidal activity against Tyrophagus putrescentiae from compound treated origin in compound treated rapeseed assessed as increase in population rate at sub-lethal concentration at 25 degC, 85% RH measured after 147 days; type: functional, organism-based
# Tyrophagus putrescentiae [17] = experiment: Insecticidal activity against Tyrophagus putrescentiae in compound treated rapeseed assessed as mortality (LD95) after 21 days (reference value: 2.4 ug/cm'2); type: functional
# Tyrophagus putrescentiae [18] = experiment: Insecticidal activity against Tyrophagus putrescentiae in compound treated rapeseed assessed as mortality (LD50) after 84 days (reference value: 0.78 ug/cm'2); type: functional
# Tyrophagus putrescentiae [19] = experiment: Insecticidal activity against Tyrophagus putrescentiae in compound treated rapeseed assessed as mortality (LD50) after 63 days (reference value: 0.78 ug/cm'2); type: functional
# Tyrophagus putrescentiae [20] = experiment: Insecticidal activity against Tyrophagus putrescentiae in compound treated rapeseed assessed as mortality (LD50) after 105 days (reference value: 0.78 ug/cm'2); type: functional
smiles,measurement,setting,value
Cc1c(COC(=O)[C@@H]2[C@H](/C=C(\Cl)C(F)(F)F)C2(C)C)cccc1-c1ccccc1 [BIFENTHRIN],LD50,Tyrophagus putrescentiae [1],0.16 microg/cm2
same,LD95,Tyrophagus putrescentiae [2],2.9 microg/cm2
same,ED50,Tyrophagus putrescentiae [3],2.7 µg
same,LD95,Tyrophagus putrescentiae [4],2.4 microg/cm2
same,LD95,Tyrophagus putrescentiae [5],2.3 microg/cm2
same,LD50,Tyrophagus putrescentiae [6],0.44 microg/cm2
same,Activity,Tyrophagus putrescentiae [7],896 ppm/g/hr
same,Activity,Tyrophagus putrescentiae [8],inactive
same,LD50,Tyrophagus putrescentiae [9],0.65 microg/cm2
same,LD95,Tyrophagus putrescentiae [10],1.6 microg/cm2
same,Activity,Tyrophagus putrescentiae [11],745 ppm/g/hr
same,LD50,Tyrophagus putrescentiae [12],0.44 microg/cm2
same,LD95,Tyrophagus putrescentiae [13],2 microg/cm2
same,Activity,Tyrophagus putrescentiae [14],Active
same,LD95,Tyrophagus putrescentiae [15],1.8 microg/cm2
same,Activity,Tyrophagus putrescentiae [16],inactive
same,LD95,Tyrophagus putrescentiae [17],1.6 microg/cm2
same,LD50,Tyrophagus putrescentiae [18],0.46 microg/cm2
same,LD50,Tyrophagus putrescentiae [19],0.24 microg/cm2
same,LD50,Tyrophagus putrescentiae [20],1.14 microg/cm2
